{"source": "paper PMC7044277", "about": "(Nature Communications, 2020)", "key": {"[1]": {"molecular_target": "DRD3 wild-type (Homo sapiens, UniProt P35462)", "sequence (P35462 whole entry)": "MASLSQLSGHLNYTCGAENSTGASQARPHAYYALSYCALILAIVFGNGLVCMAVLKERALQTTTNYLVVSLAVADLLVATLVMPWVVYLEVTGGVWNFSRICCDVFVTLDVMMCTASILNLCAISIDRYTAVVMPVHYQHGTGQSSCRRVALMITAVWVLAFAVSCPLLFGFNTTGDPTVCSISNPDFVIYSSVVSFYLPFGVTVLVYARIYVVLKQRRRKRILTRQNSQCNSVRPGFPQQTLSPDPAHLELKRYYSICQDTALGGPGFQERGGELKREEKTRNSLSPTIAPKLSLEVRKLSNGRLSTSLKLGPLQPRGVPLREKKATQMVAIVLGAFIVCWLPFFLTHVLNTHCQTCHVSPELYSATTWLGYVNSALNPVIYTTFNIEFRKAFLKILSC", "assay": "Radioligand competition binding, [3H]-N-methylspiperone", "conditions": "DRD3 wild-type; read-out: pKi ± SEM (converted)"}, "[2]": {"molecular_target": "T1, 5HT2C (Homo sapiens, UniProt P28335)", "T1 sequence (P28335 33-458)": "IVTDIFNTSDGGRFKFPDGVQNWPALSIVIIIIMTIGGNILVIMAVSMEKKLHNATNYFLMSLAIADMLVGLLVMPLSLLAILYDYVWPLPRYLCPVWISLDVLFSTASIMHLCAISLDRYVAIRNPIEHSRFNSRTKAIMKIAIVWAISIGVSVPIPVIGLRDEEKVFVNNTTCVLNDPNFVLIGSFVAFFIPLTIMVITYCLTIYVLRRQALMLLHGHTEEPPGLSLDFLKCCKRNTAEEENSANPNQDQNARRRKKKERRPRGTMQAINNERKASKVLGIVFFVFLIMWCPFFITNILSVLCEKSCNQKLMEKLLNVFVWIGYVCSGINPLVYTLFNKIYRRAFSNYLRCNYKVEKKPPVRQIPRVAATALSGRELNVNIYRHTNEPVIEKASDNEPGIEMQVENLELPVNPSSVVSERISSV", "assay": "β-arrestin2 recruitment (Tango)", "format": "cell-based", "conditions": "Fig_S10m; for β-arrestin2 recruitment response in presence of serotonin (replicate values): +10μM serotonin; for β-arrestin2 recruitment response (dose-response source data, replicate values): drug alone"}, "[3]": {"molecular_target": "DRD3 (Homo sapiens, UniProt P35462)", "sequence (P35462 whole entry)": "as the sequence (P35462 whole entry) above", "assay": "β-arrestin2 recruitment (Tango)", "format": "cell-based"}, "[4]": {"molecular_target": "DRD2 F1103.28A (Homo sapiens, UniProt P14416, F110A)", "sequence (P14416 whole entry F110A)": "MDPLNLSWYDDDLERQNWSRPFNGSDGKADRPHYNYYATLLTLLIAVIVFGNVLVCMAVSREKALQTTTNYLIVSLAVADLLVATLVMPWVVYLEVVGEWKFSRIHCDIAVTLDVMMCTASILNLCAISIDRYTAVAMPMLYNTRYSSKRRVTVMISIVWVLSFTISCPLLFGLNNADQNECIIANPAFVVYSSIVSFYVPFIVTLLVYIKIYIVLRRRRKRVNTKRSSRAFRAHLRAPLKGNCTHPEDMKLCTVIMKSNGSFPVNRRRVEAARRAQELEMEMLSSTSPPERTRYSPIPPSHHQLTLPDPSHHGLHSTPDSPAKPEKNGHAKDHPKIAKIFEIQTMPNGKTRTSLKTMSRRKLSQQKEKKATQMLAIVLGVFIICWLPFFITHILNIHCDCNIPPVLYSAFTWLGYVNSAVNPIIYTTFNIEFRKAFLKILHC", "assay": "β-arrestin2 recruitment (Tango), mutant", "format": "cell-based", "design": "expressed in transfected cells; host or cells: HEK293T (ATCC CRL-11268)"}}, "note": "Values joined by “and” are separate entries in the source; they are usually repeats but may differ in a detail not shown here. Equal values may be shown once."}
{"smiles": "CCOc1cccc2cc([C@@H](C)NCC3(O)CCCCC3)oc12", "note": "[O4RE6]", "values": [{"measurement": "Ki", "setting": "[1]", "result": 115, "unit": "nM"}, {"measurement": "β-arrestin2 recruitment response in presence of serotonin (replicate values)", "setting": "[2]; Log[Drug] -5", "result": "58.3147 and 46.4286 and 67.806 and 58.4132 and 79.4697 and 68.0017 and 93.0961 and 72.2806 and 97.8926"}, {"measurement": "β-arrestin2 recruitment response (dose-response source data, replicate values)", "setting": "[2]; Log[Drug] -5", "result": "0.7157 and -0.5401 and -1.168 and 2.766 and 0.7235 and 1.739 and 11.316 and 1.077 and 3.549"}, {"measurement": "β-arrestin2 recruitment response in presence of serotonin (replicate values)", "setting": "[2]; Log[Drug] -5.52", "result": "54.8113 and 63.0121 and 49.2529 and 68.8758 and 64.9488 and 66.315 and 83.0753 and 67.6275 and 72.9664"}, {"measurement": "β-arrestin2 recruitment response (dose-response source data, replicate values)", "setting": "[2]; Log[Drug] -5.52", "result": "1.749 and 2.795 and -1.663 and 3.765 and 1.711 and -0.08172 and 1.356 and 7.494 and -2.02"}, {"measurement": "β-arrestin2 recruitment response in presence of serotonin (replicate values)", "setting": "[2]; Log[Drug] -6", "result": "55.8065 and 61.1873 and 58.6737 and 61.6241 and 75.6253 and 78.232 and 62.8429 and 85.8382 and 64.0091"}, {"measurement": "β-arrestin2 recruitment response (dose-response source data, replicate values)", "setting": "[2]; Log[Drug] -6", "result": "3.06 and -0.5319 and 0.7534 and 2.096 and -0.5619 and -0.6198 and -1.437 and 2.573 and 0.749"}, {"measurement": "β-arrestin2 recruitment response in presence of serotonin (replicate values)", "setting": "[2]; Log[Drug] -6.52", "result": "70.8253 and 57.3668 and 57.1998 and 54.2043 and 49.8953 and 65.9707 and 67.8605 and 93.5331 and 78.9014"}, {"measurement": "β-arrestin2 recruitment response (dose-response source data, replicate values)", "setting": "[2]; Log[Drug] -6.52", "result": "-0.8494 and -0.7143 and 0.1419 and 1.691 and -0.2222 and -0.8824 and 6.685 and 2.505 and 2.238"}, {"measurement": "β-arrestin2 recruitment response in presence of serotonin (replicate values)", "setting": "[2]; Log[Drug] -7", "result": "78.7809 and 65.1211 and 66.7181 and 78.276 and 64.6889 and 65.4492 and 69.2492 and 67.696 and 63.7064"}, {"measurement": "β-arrestin2 recruitment response (dose-response source data, replicate values)", "setting": "[2]; Log[Drug] -7", "result": "-1.487 and -0.5714 and -1.709 and 1.211 and 0.5059 and 0.1139 and 0.4054 and 1.8599 and -0.4067"}, {"measurement": "β-arrestin2 recruitment response in presence of serotonin (replicate values)", "setting": "[2]; Log[Drug] -7.52", "result": "60.5159 and 63.0454 and 62.4237 and 65.5364 and 59.1349 and 50.606 and 95.9761 and 69.8099 and 82.5107"}, {"measurement": "β-arrestin2 recruitment response (dose-response source data, replicate values)", "setting": "[2]; Log[Drug] -7.52", "result": "4.965 and 0.04923 and -3.23 and 2.115 and 1.39 and -0.6014 and 1.1728 and 0.6792 and -0.974"}, {"measurement": "β-arrestin2 recruitment response in presence of serotonin (replicate values)", "setting": "[2]; Log[Drug] -8", "result": "71.3267 and 75.4455 and 66.4208 and 75.6262 and 64.4484 and 59.5931 and 70.3904 and 75.8595 and 73.1664"}, {"measurement": "β-arrestin2 recruitment response (dose-response source data, replicate values)", "setting": "[2]; Log[Drug] -8", "result": "1.2751 and -0.6351 and 2.803 and -0.01928 and -0.2938 and -0.4398 and 3.201 and 7.224 and -1.315"}, {"measurement": "β-arrestin2 recruitment response in presence of serotonin (replicate values)", "setting": "[2]; Log[Drug] -8.52", "result": "58.0598 and 61.1071 and 60.9165 and 75.2534 and 73.2353 and 72.7725 and 80.2506 and 68.3081 and 73.8075"}, {"measurement": "β-arrestin2 recruitment response (dose-response source data, replicate values)", "setting": "[2]; Log[Drug] -8.52", "result": "1.412 and -1.374 and -2.167 and -0.9173 and -0.6234 and -0.001836 and -1.0517 and 2.438 and -0.7292"}, {"measurement": "β-arrestin2 recruitment response in presence of serotonin (replicate values)", "setting": "[2]; Log[Drug] -9", "result": "62.3446 and 66.0878 and 69.0787 and 68.4846 and 71.5679 and 75.9558 and 57.0421 and 71.8594 and 68.3133"}, {"measurement": "β-arrestin2 recruitment response (dose-response source data, replicate values)", "setting": "[2]; Log[Drug] -9", "result": "8.947 and 0.2944 and -1.358 and 0.06794 and 1.215 and 1.023 and 1.659 and -1.676 and 1.911"}, {"measurement": "β-arrestin2 recruitment response in presence of serotonin (replicate values)", "setting": "[2]; Log[Drug] -9.52", "result": "55.4527 and 57.9556 and 67.8156 and 72.3217 and 60.5213 and 59.5912 and 64.5922 and 60.3604 and 70.7827"}, {"measurement": "β-arrestin2 recruitment response (dose-response source data, replicate values)", "setting": "[2]; Log[Drug] -9.52", "result": "0.7577 and 0.9406 and -1.056 and 0.774 and -0.8934 and -0.3755 and 4.117 and -0.7424 and 3.815"}, {"measurement": "β-arrestin2 recruitment agonist activity", "setting": "[3]; DRD3, Tango", "result": "partial agonist"}, {"measurement": "EC50", "setting": "[3]; DRD3, Tango, read-out: EC50 ± SEM", "result": "808 ± 22", "unit": "nM"}, {"measurement": "β-arrestin2 recruitment response at DRD3 (source data, replicate values)", "setting": "[3]; Log[Drug] -5", "result": "4.576 and 3.7 and 3.62 and 3.736 and 5.471 and 3.308 and 2.328"}, {"measurement": "β-arrestin2 recruitment response at DRD3 (source data, replicate values)", "setting": "[3]; Log[Drug] -5.52", "result": "3.058 and 2.935 and 3.394 and 3.834 and 3.658 and 1.004 and 1.077"}, {"measurement": "β-arrestin2 recruitment response at DRD3 (source data, replicate values)", "setting": "[3]; Log[Drug] -6", "result": "2.938 and 3.023 and 2.856 and 3.025 and 3.1562 and 0.3638 and 0.509"}, {"measurement": "β-arrestin2 recruitment response at DRD3 (source data, replicate values)", "setting": "[3]; Log[Drug] -6.52", "result": "3.396 and 2.937 and 2.899 and 3.295 and 4.17 and 0.7903 and 0.1505"}, {"measurement": "β-arrestin2 recruitment response at DRD3 (source data, replicate values)", "setting": "[3]; Log[Drug] -7", "result": "2.933 and 3.147 and 2.775 and 2.952 and 4.646 and 0.5125 and 2.883"}, {"measurement": "β-arrestin2 recruitment response at DRD3 (source data, replicate values)", "setting": "[3]; Log[Drug] -7.52", "result": "3.0214 and 3.313 and 2.803 and 3.9395 and 2.8785 and -0.1416 and 0.9462"}, {"measurement": "β-arrestin2 recruitment response at DRD3 (source data, replicate values)", "setting": "[3]; Log[Drug] -8", "result": "3.394 and 3.834 and 3.658 and 3.117 and 3.387 and 1.887 and -0.07348"}, {"measurement": "β-arrestin2 recruitment response at DRD3 (source data, replicate values)", "setting": "[3]; Log[Drug] -8.52", "result": "2.856 and 3.025 and 3.1562 and 3.299 and 3.446 and 1.2903 and 3.595"}, {"measurement": "β-arrestin2 recruitment response at DRD3 (source data, replicate values)", "setting": "[3]; Log[Drug] -9", "result": "2.899 and 3.295 and 4.17 and 2.956 and 3.124 and 0.2993 and 1.159"}, {"measurement": "β-arrestin2 recruitment response at DRD3 (source data, replicate values)", "setting": "[3]; Log[Drug] -9.52", "result": "2.775 and 2.952 and 4.646 and 3.025 and 2.94 and 0.3512 and -0.2025"}, {"measurement": "β-arrestin2 recruitment response at DRD3 (source data, replicate values)", "setting": "[3]; Log[Drug] -10", "result": "2.803 and 3.9395 and 2.8785 and 2.928 and 3.403 and 1.077 and 2.238"}, {"measurement": "β-arrestin2 recruitment response at DRD3 (source data, replicate values)", "setting": "[3]; Log[Drug] -10.52", "result": "5.884 and 3.155 and 4.6156 and 3.056 and 2.943 and 1.1541 and 0.8548"}, {"measurement": "β-arrestin2 recruitment response at DRD3 (source data, replicate values)", "setting": "[3]; Log[Drug] -11", "result": "3.18 and 2.961 and 3.126 and 2.927 and 2.942 and 0.5878 and 2.511"}, {"measurement": "β-arrestin2 recruitment response at DRD3 (source data, replicate values)", "setting": "[3]; Log[Drug] -11.52", "result": "2.6928 and 2.862 and 2.962 and 3.132 and 3.725 and -0.276 and 0.7993"}, {"measurement": "Emax", "setting": "[3]; read-out: Emax relative to quinpirole response, DRD3, Tango", "result": 21.4, "unit": "%"}, {"measurement": "EC50", "setting": "[4]", "result": "> 10000", "unit": "nM"}]}
